# Experimental data reported in patent US12048699B2, “Cancer treatment methods based on TP53 mutation status and hypermutation” (TAKEDA PHARMACEUTICAL COMPANY LIMITED, priority 2018, dated 2024).
# What was measured:
# [1] = system: human primary tumor xenograft models; test: phase 2-like preclinical study in human primary tumor xenograft (PDX) models, % ΔTGI response vs mutation status; type: in vivo, Balb/c nude mice; conditions: 77 PDX models, crystalline form A of Compound 1 hemihydrate, 60 mg/kg, Bid, po, 21 days, 3 days on 4 days off
# From the text: Compound 1 is an investigational drug under clinical development for cancer treatment. Compound 1 achieves anti-tumor effects by inhibiting Cdc7 kinase, which is involved in DNA replication and repair. Predictive biomarker identification was investigated using data derived from a phase 2-like preclinical study, that is human primary tumor xenograft models using Balb/c nude mice ([…], female, 6-8 weeks old, 18-22 g). For each model, 6 tumor bearing mice were randomized into 2 groups. Tumor fragments from seed mice inoculated with selected PDX tumors were harvested and used for inoculation into Balb/c nude mice. Each mouse was inoculated subcutaneously at the right flank with one tumor fragment (2-3 mm in diameter). The treatments were started when mean tumor size reached approximately 200-250 mm^3. Mice were dosed orally with either vehicle or Compound 1 (crystalline form A of Compound 1 hemihydrate, 60 mg/kg, Bid, po, 21 days, 3 days on 4 days off). TP53 mutation status and hypermutation status as measured by microsatellite instability/stability (MSI/MSS) status were identified as predictive biomarkers for cancer treatment with Compound 1.
# Whole exome sequencing (WES) and RNA sequencing (RNASeq) were done for 92 xenograft models whose cancer types are colon (n=40), pancreas (n=24), non-small cell lung (n=23), and ovary cancer (n=5).
# In this study, % ΔTGI (percent delta tumor growth inhibition) was used and its mathematical definition is as follows.
# In the above equation, Tt and T0 represent the sizes of tumor in treatment at time t and 0 and similarly Ct and C0 mean the sizes of tumor in control (vehicle) at the same time points t and 0. Therefore, a large % ΔTGI indicates a higher degree of tumor growth inhibition in treatment than in vehicle.
# Binary response was inferred by categorizing % ΔTGI, so that samples were classified as responders with high % ΔTGI and non-responders with low % ΔTGI. Chi-square test was run to evaluate the potential association between the class labels (responder vs. non-responder) and mutational status (MUT vs. WT). […]
# human hepatocytes = test: metabolism in human hepatocytes; type: in vitro ADME; conditions: metabolite structures shown in drawing 7
smiles,measurement,setting,value
"Cc1[nH]ncc1-c1cc2nc([C@@H]3CC4CCN3CC4)[nH]c(=O)c2s1 [Compound 1, 2-[(2S)-1-azabicyclo[2.2.2]oct-2-yl]-6-(3-methyl-1H-pyrazol-4-yl)thieno[3,2-d]pyrimidin-4(3H)-one]","association of TP53 mutation with response (% ΔTGI, responder vs. non-responder)",[1]; Chi-square test / decision tree,most significantly associated with response
same,"association of CHD family genes mutation with response (% ΔTGI, responder vs. non-responder)",[1]; decision tree,associated with non-response
same,"association of hypermutation with response (% ΔTGI, responder vs. non-responder)",[1]; decision tree,associated with non-response
same,metabolism to metabolites,human hepatocytes,can be metabolized to compounds of the following structures
